# Key:
# [1] = cited from earlier work
# [2] = Visual appearance of diluted reference and intravenous CBD formulations; assay type: physicochemical
# Text: As a control for the CBD granules, a commercial product was used, namely Epidyolex.
# When comparing the two solutions, the second approach qualified as a suitable injectable formulation for the rat study.
structure (smiles),measurement,setting,value
"C=C(C)[C@@H]1CCC(C)=C[C@H]1c1c(O)cc(CCCCC)cc1O [CBD, cannabidiol]",Cmax (maximum concentration),[1]; 20 mg of orally delivered CBD/THC sprayed onto a gelatin capsule,2.4 ng/mL
same,Time to peak plasma concentration,[1]; oral delivery,1 to 4 h
same,visual appearance of intravenous formulation,"[2]; first approach: 50 mg/ml in 95% ethanol, diluted to 1 mg/ml in 96% saline and 2% polysorbate 80",formation of fat drops
same,visual appearance of intravenous formulation,"[2]; second approach: 50 mg/ml in 1:1 ethanol: polysorbate 80, diluted to 1 mg/ml in 98% saline, 10 or 20 min rest",no fat drops and no sediment were observed

# — EP4599821A1, “CANNABIDIOL-COMPRISING LIPOSOMES” (Novozymatic BV, priority 2024, dated 2025)
